{"source": "patent US20120065126A1", "about": "“Pharmaceutical Compositions Containing Antifungal Peptides” (BASF SE, priority 2009, published 2012)", "key": {"[1]": {"tested_on": "Malassezia furfur strain DSM 6170", "assay": "Long-term stability of P18 solution, growth test (CFU)", "format": "cell-based", "procedure": "(§1) The studies described hereinafter were conducted on the Malassezia furfur strain DSM 6170.\nSince storage may be necessary over a prolonged period, a 1 mM P18 peptide solution (P18 sequence H-KWKLFKKIPKFLHLAKKF-NH2) was subsequently stored at 37° C. over 12 weeks, and the antifungal activity of the stored solution on Malassezia furfur was compared with the activity of a freshly made up 1 mM P18 peptide solution. This was done using a growth test, which was conducted as follows:\nGrowth medium: M472 Pityrosporum medium according to DSMZ 40 g/1 malt extract 20 g/l ox bile\n(§2) The growth test was effected as follows: a shake culture containing M472 Pityrosporum medium was inoculated with M. furfur and incubated with shaking at 30° C. and 200 rpm overnight.\nA 96-well microtiter plate was filled with 100 μl per well of M472 Pityrosporum medium and inoculated with M. furfur suspension from the overnight culture. The M. furfur suspension was adjusted at the start of the experiment to an optical density, measured at 600 nm, of 0.02. The concentrates of the inhibitor solutions were 1 mM in water.\nThe following growth was compared: • M. furfur suspension without addition of an inhibitor • M. furfur suspension and addition of an aqueous fresh P18 solution with a final concentration of 50 μM • M. furfur suspension and addition of an aqueous fresh P18 solution with a final concentration of 25 μM • M. furfur suspension and addition of a P18 solution which had been stored at 37° C. for 12 weeks with a final concentration of 50 μM • M. furfur suspension and addition of a P18 solution which had been stored at 37° C. for 12 weeks with a final concentration of 25 μM\n(§3) The microtiter plate was incubated with shaking at 30° C.\nThe growth was observed by measuring the optical density over 24 hours. Subsequently, the colony forming units (CFU) were determined by streaking 1 μl and 5 μl of each of the suspensions and, after incubation over 6 days, counting the colonies. The CFU was determined in order to rule out any influence of the biphasic medium, and also the growth form of M. furfur, on the optical density. The experiments were conducted at least in triple determinations."}, "M. furfur": {"tested_on": "M. furfur", "format": "cell-based, Malassezia furfur", "details": "shampoo base formulation 31-3 present", "procedure": "as §1\nThe minimum inhibitory concentration (MIC) of peptide P18 (H-KWKLFKKIPKFLHLAKKF-NH2; carboxyl terminus amidated) in the presence of shampoo base formulation 31-3 (Table 10) was tested in the following manner: […]\nTo prepare the shampoo base formulation, the Texapon NSO and Tego Betain L7 components were mixed and dissolved. NaOH was used to adjust the pH to pH 6-7.\nas §2\nA 96-well microtiter plate was filled with 170 μl per well of M472 Pityrosporum medium and inoculated with 10 μl of M. furfur suspension from an overnight culture. This corresponded to an optical density of 0.02-0.1, measured at 620 nm. 20 μl of shampoo base formulation 31-3 were added to this mixture. Peptide P18 was dissolved with a concentration of 10 mM in DMSO.\nas §3\nAfter incubation for 24 hours, the colony forming units (CFU) were determined by resuspending 1 μl of each of the suspensions in 10 μl of medium, and then streaking them. After incubation over the course of 6 days, the colonies on the plate were counted. The experiment was conducted in double determination."}, "[2]": {"tested_on": "E. coli (Stratagene, BLR)", "assay": "P18 in pharmaceutical base formulation (CFU)", "format": "cell-based, Escherichia coli", "details": "mixed 1:9 with suspension", "procedure": "The aim of the experiment was to study the effect of a pharmaceutical base formulation containing the P18 peptide ingredient (P18 sequence H-KWKLFKKIPKFLHLAKKF-NH2 (Bachem AG, Switzerland)). For this purpose, the following base formulation was used: […]\n1% hydroxycellulose 10% propylene glycol made up with water.\nBased on the base formulation, formulations with rising P18 concentrations (500 ppm to 10 000 ppm) were prepared from a 20% concentrate solution.\nThe effect of the formulations on E. coli (Stratagene, BLR) was studied.\nLB growth medium (Becton, Dickinson and Company, Sparks, USA) […] make up to 1 liter, set pH 7\nThe growth test was effected as follows: 5 ml of LB medium were inoculated with E. coli and incubated at 37° C. and 200 rpm overnight.\n1.5 ml reaction vessels were each filled with 1 ml of LB medium and inoculated with the E. coli suspension from the overnight culture such that an optical density, measured at 600 nm, of 0.1 was obtained at the start of the experiment. The resulting E. coli suspension was mixed in a ratio of 1:9 (formulation: E. coli suspension) with the formulations. 1 μl of the culture was diluted with 20 μl of LB medium after 5 minutes, 10 minutes, 20 minutes and 60 minutes, and then plated out. After incubation over 24 hours, the colonies on the plates were counted."}}, "note": "Like-named read-outs stand apart in the source and are kept apart here."}
{"substance": "H-KWKLFKKIPKFLHLAKKF-NH2 [P18, H-KWKLFKKIPKFLHLAKKF-NH2]", "values": [{"measurement": "Effect of storage on the activity of the solution", "setting": "[1]; 1 mM P18 peptide solution, 37° C., 12 weeks", "result": "has not affected the activity"}, {"measurement": "Colony forming units (CFU)", "setting": "[1]; aqueous P18 solution (fresh), final conc. 25 μM, incubation 16-18 h", "result": "5 ± 8", "unit": "CFU"}, {"measurement": "Colony forming units (CFU)", "setting": "[1]; aqueous P18 solution (fresh), final conc. 25 μM, incubation 24 h", "result": "1 ± 2", "unit": "CFU"}, {"measurement": "Colony forming units (CFU)", "setting": "[1]; aqueous P18 solution (fresh), final conc. 50 μM, incubation 16-18 h", "result": "0 ± 0", "unit": "CFU"}, {"measurement": "Colony forming units (CFU)", "setting": "[1]; aqueous P18 solution (fresh), final conc. 50 μM, incubation 24 h", "result": "1 ± 1", "unit": "CFU"}, {"measurement": "Colony forming units (CFU)", "setting": "[1]; aqueous P18 solution stored at 37° C. for 12 weeks, final conc. 25 μM, incubation 16-18 h", "result": "6 ± 7", "unit": "CFU"}, {"measurement": "Colony forming units (CFU)", "setting": "[1]; aqueous P18 solution stored at 37° C. for 12 weeks, final conc. 25 μM, incubation 24 h", "result": "5 ± 5", "unit": "CFU"}, {"measurement": "Colony forming units (CFU)", "setting": "[1]; aqueous P18 solution stored at 37° C. for 12 weeks, final conc. 50 μM, incubation 16-18 h", "result": "0 ± 0", "unit": "CFU"}, {"measurement": "Colony forming units (CFU)", "setting": "[1]; aqueous P18 solution stored at 37° C. for 12 weeks, final conc. 50 μM, incubation 24 h", "result": "1 ± 1", "unit": "CFU"}, {"measurement": "Colony forming units (CFU) after incubation time of 24 hours", "setting": "M. furfur; P18 25 μM", "result": 80, "unit": "CFU"}, {"measurement": "Colony forming units (CFU) after incubation time of 24 hours", "setting": "M. furfur; P18 50 μM", "result": 32, "unit": "CFU"}, {"measurement": "Colony forming units (CFU) after incubation time of 24 hours", "setting": "M. furfur; P18 100 μM", "result": 0, "unit": "CFU"}, {"measurement": "Colony forming units (CFU) after incubation time of 24 hours", "setting": "M. furfur; P18 200 μM", "result": 0, "unit": "CFU"}, {"measurement": "Colony forming units (CFU) after incubation time of 24 hours", "setting": "M. furfur; P18 300 μM", "result": 0, "unit": "CFU"}, {"measurement": "Colony forming units (CFU) after incubation time of 24 hours", "setting": "M. furfur; P18 400 μM", "result": 0, "unit": "CFU"}, {"measurement": "Colony forming units (CFU) after incubation time of 24 hours", "setting": "M. furfur; P18 500 μM", "result": 0, "unit": "CFU"}, {"measurement": "Colony forming units after the incubation time specified", "setting": "[2]; 10 000 ppm in the formulation, 5 minutes", "result": "1778 ± 314", "unit": "CFU"}, {"measurement": "Colony forming units after the incubation time specified", "setting": "[2]; 10 000 ppm in the formulation, 10 minutes", "result": "901 ± 120", "unit": "CFU"}, {"measurement": "Colony forming units after the incubation time specified", "setting": "[2]; 10 000 ppm in the formulation, 20 minutes", "result": "226 ± 286", "unit": "CFU"}, {"measurement": "Colony forming units after the incubation time specified", "setting": "[2]; 10 000 ppm in the formulation, 60 minutes", "result": "7.75 ± 9.5", "unit": "CFU"}, {"measurement": "Colony forming units after the incubation time specified", "setting": "[2]; 500 ppm in the formulation, 5 minutes", "result": "2000 ± 0", "unit": "CFU"}, {"measurement": "Colony forming units after the incubation time specified", "setting": "[2]; 500 ppm in the formulation, 10 minutes", "result": "2000 ± 0", "unit": "CFU"}, {"measurement": "Colony forming units after the incubation time specified", "setting": "[2]; 500 ppm in the formulation, 20 minutes", "result": "2000 ± 0", "unit": "CFU"}, {"measurement": "Colony forming units after the incubation time specified", "setting": "[2]; 500 ppm in the formulation, 60 minutes", "result": "709 ± 451", "unit": "CFU"}, {"measurement": "Colony forming units after the incubation time specified", "setting": "[2]; 1000 ppm in the formulation, 5 minutes", "result": "2000 ± 0", "unit": "CFU"}, {"measurement": "Colony forming units after the incubation time specified", "setting": "[2]; 1000 ppm in the formulation, 10 minutes", "result": "2000 ± 0", "unit": "CFU"}, {"measurement": "Colony forming units after the incubation time specified", "setting": "[2]; 1000 ppm in the formulation, 20 minutes", "result": "1619 ± 534", "unit": "CFU"}, {"measurement": "Colony forming units after the incubation time specified", "setting": "[2]; 1000 ppm in the formulation, 60 minutes", "result": "332 ± 236", "unit": "CFU"}, {"measurement": "Colony forming units after the incubation time specified", "setting": "[2]; 2000 ppm in the formulation, 5 minutes", "result": "2000 ± 0", "unit": "CFU"}, {"measurement": "Colony forming units after the incubation time specified", "setting": "[2]; 2000 ppm in the formulation, 10 minutes", "result": "2000 ± 0", "unit": "CFU"}, {"measurement": "Colony forming units after the incubation time specified", "setting": "[2]; 2000 ppm in the formulation, 20 minutes", "result": "733 ± 349", "unit": "CFU"}, {"measurement": "Colony forming units after the incubation time specified", "setting": "[2]; 2000 ppm in the formulation, 60 minutes", "result": "93 ± 127", "unit": "CFU"}, {"measurement": "Colony forming units after the incubation time specified", "setting": "[2]; 5000 ppm in the formulation, 5 minutes", "result": "2000 ± 0", "unit": "CFU"}, {"measurement": "Colony forming units after the incubation time specified", "setting": "[2]; 5000 ppm in the formulation, 10 minutes", "result": "1225 ± 339", "unit": "CFU"}, {"measurement": "Colony forming units after the incubation time specified", "setting": "[2]; 5000 ppm in the formulation, 20 minutes", "result": "411 ± 516", "unit": "CFU"}, {"measurement": "Colony forming units after the incubation time specified", "setting": "[2]; 5000 ppm in the formulation, 60 minutes", "result": "29 ± 36", "unit": "CFU"}]}
